Results published in ChEMBL document CHEMBL3525904, “Effect of structural variation on aldehyde oxidase-catalyzed oxidation of zoniporide” (Drug Metab Dispos, 2012).

T1: Aldehyde oxidase (Homo sapiens, UniProt Q06278)
T1 sequence (Q06278 whole entry): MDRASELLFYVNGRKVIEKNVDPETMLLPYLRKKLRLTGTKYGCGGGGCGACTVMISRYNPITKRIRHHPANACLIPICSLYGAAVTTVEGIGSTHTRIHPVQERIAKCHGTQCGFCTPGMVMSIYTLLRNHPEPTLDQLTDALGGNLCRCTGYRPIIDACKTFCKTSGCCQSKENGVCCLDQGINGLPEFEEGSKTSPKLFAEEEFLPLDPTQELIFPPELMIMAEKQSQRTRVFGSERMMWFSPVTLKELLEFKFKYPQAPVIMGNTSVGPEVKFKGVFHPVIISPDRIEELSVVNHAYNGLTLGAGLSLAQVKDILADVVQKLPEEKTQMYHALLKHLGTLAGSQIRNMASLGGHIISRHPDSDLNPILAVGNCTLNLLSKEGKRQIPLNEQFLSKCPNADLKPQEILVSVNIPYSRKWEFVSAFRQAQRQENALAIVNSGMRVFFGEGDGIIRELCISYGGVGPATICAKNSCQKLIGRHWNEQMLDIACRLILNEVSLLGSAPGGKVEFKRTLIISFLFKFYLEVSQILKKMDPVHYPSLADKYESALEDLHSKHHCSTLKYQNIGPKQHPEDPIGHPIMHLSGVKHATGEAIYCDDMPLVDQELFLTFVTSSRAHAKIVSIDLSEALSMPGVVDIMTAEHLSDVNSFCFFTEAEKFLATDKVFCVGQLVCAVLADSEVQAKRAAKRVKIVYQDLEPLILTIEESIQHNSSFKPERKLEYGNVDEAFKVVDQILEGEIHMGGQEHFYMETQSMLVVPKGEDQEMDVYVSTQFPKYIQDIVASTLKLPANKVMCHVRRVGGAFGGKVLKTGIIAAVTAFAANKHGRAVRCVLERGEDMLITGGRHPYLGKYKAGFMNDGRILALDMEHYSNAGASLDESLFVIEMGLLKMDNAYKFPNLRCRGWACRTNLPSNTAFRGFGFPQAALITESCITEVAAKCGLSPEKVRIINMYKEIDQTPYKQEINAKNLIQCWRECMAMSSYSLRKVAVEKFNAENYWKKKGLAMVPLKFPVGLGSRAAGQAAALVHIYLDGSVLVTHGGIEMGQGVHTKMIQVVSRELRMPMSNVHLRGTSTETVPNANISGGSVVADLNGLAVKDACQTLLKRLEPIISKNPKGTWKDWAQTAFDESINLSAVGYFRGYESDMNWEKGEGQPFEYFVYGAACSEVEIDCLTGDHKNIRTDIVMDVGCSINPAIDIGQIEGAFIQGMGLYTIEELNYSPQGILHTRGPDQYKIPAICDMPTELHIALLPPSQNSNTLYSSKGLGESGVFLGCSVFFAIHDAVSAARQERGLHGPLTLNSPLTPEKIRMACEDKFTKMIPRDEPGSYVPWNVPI

B1: Aldehyde oxidase (Homo sapiens) (protein)
chain: T1 sequence (Q06278 whole entry)

What was measured:
Format in all cases: ADME, subcellular
[1] = target: T1, Aldehyde oxidase; experiment: Drug level in human liver S9 fraction assessed as aldehyde oxidase-mediated compound formation treated with 10 uM N-carbamimidoyl-5-methyl-1-(quinolin-5-yl)-1H-pyrazole-4-carboxamide by spectrometry
[2] = target: T1, Aldehyde oxidase; experiment: Drug metabolism in human liver S9 fraction assessed as aldehyde oxidase-mediated 2-oxo-metabolite formation at 10 uM by spectrometry; details: s9, 10 µM
[3] = target: T1, Aldehyde oxidase; experiment: Half life in human liver S9 fraction assessed as aldehyde oxidase-mediated 2-oxo-metabolite formation at 1 uM by spectrometry; details: s9, 1 µM
[4] = target: T1, Aldehyde oxidase; experiment: Drug level in human liver S9 fraction assessed as aldehyde oxidase-mediated compound formation treated with 10 uM 5-cyclopropyl-1-(quinolin-5-yl)-1H-pyrazole-4-carboxylic acid by spectrometry
[5] = target: T1, Aldehyde oxidase; experiment: Drug level in human liver S9 fraction assessed as aldehyde oxidase-mediated compound formation treated with 10 uM N-carbamimidoyl-5-(methoxymethyl)-1-(quinolin-5-yl)-1H-pyrazole-4-carboxamide by spectrometry
[6] = target: T1, Aldehyde oxidase; experiment: Drug level in human liver S9 fraction assessed as aldehyde oxidase-mediated compound formation treated with 10 uM N-carbamimidoyl-5-cyclopropyl-1-(6-methylquinolin-5-yl)-1H-pyrazole-4-carboxamide by spectrometry
[7] = target: T1, Aldehyde oxidase; experiment: Drug level in human liver S9 fraction assessed as aldehyde oxidase-mediated compound formation treated with 10 uM 5-cyclopropyl-N,N-diethyl-1-(quinolin-5-yl)-1H-pyrazole-4-carboxamide by spectrometry
[8] = target: T1, Aldehyde oxidase; experiment: Drug level in human liver S9 fraction assessed as aldehyde oxidase-mediated compound formation treated with 10 uM N-carbamimidoyl-3-cyclopropyl-1-(quinolin-5-yl)-1H-pyrazole-4-carboxamideby spectrometry
[9] = target: T1, Aldehyde oxidase; experiment: Drug level in human liver S9 fraction assessed as aldehyde oxidase-mediated compound formation treated with 10 uM N-carbamimidoyl-5-isopropyl-1-(quinolin-5-yl)-1H-pyrazole-4-carboxamide by spectrometry
[10] = target: T1, Aldehyde oxidase; experiment: Drug level in human liver S9 fraction assessed as aldehyde oxidase-mediated compound formation treated with 10 uM 5-butyl-N-carbamimidoyl-1-(quinolin-5-yl)-1H-pyrazole-4-carboxamide by spectrometry
[11] = target: T1, Aldehyde oxidase; experiment: Drug level in human liver S9 fraction assessed as aldehyde oxidase-mediated compound formation treated with 10 uM N-carbamimidoyl-5-propyl-1-(quinolin-5-yl)-1H-pyrazole-4-carboxamide by spectrometry
[12] = target: T1, Aldehyde oxidase; experiment: Drug level in human liver S9 fraction assessed as aldehyde oxidase-mediated compound formation treated with 10 uM zoniporide by spectrometry
[13] = target: T1, Aldehyde oxidase; experiment: Drug level in human liver S9 fraction assessed as aldehyde oxidase-mediated compound formation treated with 10 uM N-carbamimidoyl-5-cyclopropyl-1-(6-methoxyquinolin-5-yl)-1H-pyrazole-4-carboxamide by spectrometry
[14] = target: T1, Aldehyde oxidase; experiment: Drug level in human liver S9 fraction assessed as aldehyde oxidase-mediated compound formation treated with 10 uM N-carbamimidoyl-5-cyclopropyl-1-(6-hydroxyquinolin-5-yl)-1H-pyrazole-4-carboxamide by spectrometry
[15] = target: T1, Aldehyde oxidase; experiment: Drug level in human liver S9 fraction assessed as aldehyde oxidase-mediated compound formation treated with 10 uM 5-cyclopropyl-1-(quinolin-5-yl)-1H-pyrazole-4-carboxamide by spectrometry
[16] = substrate: COCc1c(C(=O)NC(=N)N)cnn1-c1cccc2ncccc12; experiment: (§1) Drug metabolism in human liver S9 fraction assessed as aldehyde oxidase-mediated 2-oxo-metabolite formation by spectrometry
[17] = substrate: CC(C)c1c(C(=O)NC(=N)N)cnn1-c1cccc2ncccc12; experiment: as §1
[18] = substrate: CCN(CC)C(=O)c1cnn(-c2cccc3ncccc23)c1C1CC1; experiment: as §1
[19] = substrate: N=C(N)NC(=O)c1cnn(-c2ccc3ncccc3c2)c1C1CC1; experiment: as §1
[20] = substrate: N=C(N)NC(=O)c1cn(-c2cccc3ncccc23)nc1C1CC1; experiment: as §1
[21] = substrate: N=C(N)NC(=O)c1cnn(-c2ccnc3ccccc23)c1C1CC1; experiment: as §1

Molecule | Drug metabolism [2] | t1/2 [3] | further results
Cc1c(C(=O)NC(=N)N)cnn1-c1cccc2[nH]c(=O)ccc12 | – | – | Drug metabolism [1]: metabolite_detected
CC(C)c1c(C(=O)NC(=N)N)cnn1-c1cccc2ncccc12 | metabolite_detected | 15 min | –
N=C(N)NC(=O)c1cnn(-c2cccc3[nH]ncc23)c1C1CC1 | metabolite_not_detected | – | –
O=C(O)c1cnn(-c2cccc3ncccc23)c1C1CC1 | metabolite_detected | 120 min | –
O=C(O)c1cnn(-c2cccc3[nH]c(=O)ccc23)c1C1CC1 | – | – | Drug metabolism [4]: metabolite_detected
Cc1ccc2ncccc2c1-n1ncc(C(=O)NC(=N)N)c1C1CC1 | metabolite_detected | 120 min | –
COCc1c(C(=O)NC(=N)N)cnn1-c1cccc2ncccc12 | metabolite_detected | 120 min | –
N=C(N)NC(=O)c1cnn(-c2cccc3[nH]ccc23)c1C1CC1 | metabolite_not_detected | – | –
COCc1c(C(=O)NC(=N)N)cnn1-c1cccc2[nH]c(=O)ccc12 | – | – | Drug metabolism [5]: metabolite_detected
Cc1ccc2[nH]c(=O)ccc2c1-n1ncc(C(=O)NC(=N)N)c1C1CC1 | – | – | Drug metabolism [6]: metabolite_detected
NC(=O)c1cnn(-c2cccc3ncccc23)c1C1CC1 | metabolite_detected | 110 min | –
CCN(CC)C(=O)c1cnn(-c2cccc3[nH]c(=O)ccc23)c1C1CC1 | – | – | Drug metabolism [7]: metabolite_detected
N=C(N)NC(=O)c1cn(-c2cccc3[nH]c(=O)ccc23)nc1C1CC1 | – | – | Drug metabolism [8]: metabolite_detected
CCN(CC)C(=O)c1cnn(-c2cccc3ncccc23)c1C1CC1 | metabolite_detected | 37 min | –
N=C(N)NC(=O)c1cnn(-c2ccnc3ccccc23)c1C1CC1 | metabolite_detected | 14 min | –
Cc1c(C(=O)N=C(N)N)cnn1-c1cccc2ncccc12 | metabolite_detected | 33 min | –

Molecule | Drug metabolism [2] | t1/2 [3] | further results
CCCCc1c(C(=O)NC(=N)N)cnn1-c1cccc2ncccc12 | metabolite_detected | 48 min | –
CC(C)c1c(C(=O)NC(=N)N)cnn1-c1cccc2[nH]c(=O)ccc12 | – | – | Drug metabolism [9]: metabolite_detected
N=C(N)NC(=O)c1cnn(-c2ccc3ncccc3c2)c1C1CC1 | metabolite_detected | < 5 min | –
N=C(N)NC(=O)c1cnn(-c2cccc3ncccc23)c1C1CC1 [ZONIPORIDE] | metabolite_detected | 26 min | –
CCCc1c(C(=O)NC(=N)N)cnn1-c1cccc2ncccc12 | metabolite_detected | 41 min | –
CCCCc1c(C(=O)NC(=N)N)cnn1-c1cccc2[nH]c(=O)ccc12 | – | – | Drug metabolism [10]: metabolite_detected
CCCc1c(C(=O)NC(=N)N)cnn1-c1cccc2[nH]c(=O)ccc12 | – | – | Drug metabolism [11]: metabolite_detected
N=C(N)NC(=O)c1cnn(-c2cccc3[nH]cnc23)c1C1CC1 | metabolite_detected | 120 min | –
N=C(N)NC(=O)c1cnn(-c2c(O)ccc3ncccc23)c1C1CC1 | metabolite_detected | 120 min | –
COc1ccc2ncccc2c1-n1ncc(C(=O)NC(=N)N)c1C1CC1 | metabolite_detected | 120 min | –
N=C(N)NC(=O)c1cnn(-c2cccc3[nH]c(=O)ccc23)c1C1CC1 | – | – | Drug metabolism [12]: metabolite_detected
N=C(N)NC(=O)c1cn(-c2cccc3ncccc23)nc1C1CC1 | metabolite_detected | 3.1 min | –
COc1ccc2[nH]c(=O)ccc2c1-n1ncc(C(=O)NC(=N)N)c1C1CC1 | – | – | Drug metabolism [13]: metabolite_detected
N=C(N)NC(=O)c1cnn(-c2c(O)ccc3[nH]c(=O)ccc23)c1C1CC1 | – | – | Drug metabolism [14]: metabolite_detected
NC(=O)c1cnn(-c2cccc3[nH]c(=O)ccc23)c1C1CC1 | – | – | Drug metabolism [15]: metabolite_detected
B1 | – | – | Km [16]: 9 µM; Km [17]: 2.2 µM; Km [18]: 16 µM; Km [19]: 1.2 µM; Km [20]: 0.4 µM; Km [21]: 1.8 µM
